Measurements as given in patent US8742098B2, “Inhibitors of Bruton's tyrosine kinase” (Hoffmann-La Roche Inc., priority 2011, dated 2014).

tested on: B cell receptor-mediated activation of B cells in human blood; experiment: Inhibition of B cell activation in whole blood measured by CD69 expression; type: cell-based; conditions: anti-IgM stimulation, 20 hours, CD69-positive cells that are also CD20-positive, read-out: HWB IC50
Description: A procedure to test the ability of Btk inhibitors to suppress B cell receptor-mediated activation of B cells in human blood is as follows:
Human whole blood (HWB) is obtained from healthy volunteers, with the following restrictions: 24 hr drug-free, non-smokers. Blood is collected by venipuncture into Vacutainer tubes anticoagulated with sodium heparin. Test compounds are diluted to ten times the desired starting drug concentration in PBS (20×), followed by three-fold serial dilutions in 10% DMSO in PBS to produce a nine point dose-response curve. 5.5 μl of each compound dilution is added in duplicate to a 2 ml 96-well V bottom plate (Analytical Sales and Services, #59623-23); 5.5 μl of 10% DMSO in PBS is added to control and no-stimulus wells. HWB (100 μl) is added to each well, and after mixing the plates are incubated at 37 C, 5% CO2, 100% humidity for 30 minutes. Goat F(ab′)2 anti-human IgM (Southern Biotech, #2022-14) (10 μl of a 500 μg/ml solution, 50 μg/ml final concentration) is added to each well (except the no-stimulus wells) with mixing and the plates are incubated for an additional 20 hours.
At the end of the 20 hour incubation, samples are incubated with florescent-probe-labeled anti-bodies (15 μl PE Mouse anti-Human CD20, BD Pharmingen, #555623, and/or 20 ul APC Mouse anti-Human CD69, BD Pharmingen #555533) for 30 minutes, at 37 C, 5% CO2, 100% humidity. Included are induced control, unstained and single stains for compensation adjustments and initial voltage settings. Samples are then lysed with 1 ml of 1× Pharmingen Lyse Buffer (BD Pharmingen #555899), and plates are centrifuged at 1800 rpm for 5 minutes. Supernatants are removed via suction and the remaining pellets are lysed again with another 1 ml of 1× Pharmingen Lyse Buffer, and plates are spun down as before. Supernatants are aspirated and remaining pellets are washed in FACs buffer (PBS+1% FBS). After a final spin, the supernantants are removed and pellets are resuspended in 180 μl of FACs buffer. Samples are transferred to a 96 well plate suitable to be run on the HTS 96 well system on the BD LSR II flow cytometer.
Using appropriate excitation and emission wavelengths for the fluorophores used, data are acquired and percent positive cell values are obtained using Cell Quest Software. Results are initially analyzed by FACS analysis software (Flow Jo). […] The IC50 values are calculated using XLfit software version 3, equation 201.

Row | Structure (SMILES) | IC50 [nM]
1 | CC(C)(C)c1cc(F)c2c(=O)n(-c3cccc(-c4cc(Nc5ccc(C(=O)N6CCOCC6)cn5)c5ncccc5c4)c3CO)ncc2c1 [Compound I-13, 6-tert-Butyl-8-fluoro-2-(2-hydroxymethyl-3-{8-[5-(morpholine-4-carbonyl)-pyridin-2-ylamino]-quinolin-6-yl}-phenyl)-2H-phthalazin-1-one] | > 5000
2 | CC(C)(C)c1cc(F)c2c(=O)n(-c3cccc(-c4cn5ccnc5c(Nc5ccc(C(=O)N6CCOCC6)cc5)n4)c3CO)ncc2c1 [Compound I-7, 6-tert-Butyl-8-fluoro-2-(2-hydroxymethyl-3-{8-[4-(morpholine-4-carbonyl)-phenylamino]-imidazo[1,2-a]pyrazin-6-yl}-phenyl)-2H-phthalazin-1-one] | 112
3 | CC(C)(C)c1cc(F)c2c(=O)n(-c3cccc(-c4cc(Nc5ccc(C(=O)N6CCOCC6)cc5)c5nccn5c4)c3CO)ncc2c1 [Compound I-9, 6-tert-Butyl-8-fluoro-2-(2-hydroxymethyl-3-{8-[4-(morpholine-4-carbonyl)-phenylamino]-imidazo[1,2-a]pyridin-6-yl}-phenyl)-2H-phthalazin-1-one] | 1040
4 | CN1CCC(c2ccc(Nc3nc(-c4cccc(-n5ncc6cc(C(C)(C)C)cc(F)c6c5=O)c4CO)cn4ccnc34)cc2)CC1 [Compound I-8, 6-tert-Butyl-8-fluoro-2-(2-hydroxymethyl-3-{8-[4-(1-methyl-piperidin-4-yl)-phenylamino]-imidazo[1,2-a]pyrazin-6-yl}-phenyl)-2H-phthalazin-1-one] | 2270
5 | CC(C)(C)c1cc(F)c2c(=O)n(-c3cccc(-c4cc(Nc5ccc(C(=O)N6CCOCC6)cn5)c5ncnn5c4)c3CO)ncc2c1 [Compound I-1, 6-tert-Butyl-8-fluoro-2-(2-hydroxymethyl-3-{8-[5-(morpholine-4-carbonyl)-pyridin-2-ylamino]-[1,2,4]triazolo[1,5-a]pyridin-6-yl}-phenyl)-2H-phthalazin-1-one] | 350
6 | CC(C)(C)c1cc(F)c2c(=O)n(-c3cccc(-c4cc(Nc5ccc(C(=O)N6CCOCC6)cn5)ncn4)c3CO)ncc2c1 [Compound I-12, 6-tert-Butyl-8-fluoro-2-(2-hydroxymethyl-3-{6-[5-(morpholine-4-carbonyl)-pyridin-2-ylamino]-pyrimidin-4-yl}-phenyl)-2H-phthalazin-1-one] | 2500
7 | CC(C)(C)c1cc(F)c2c(=O)n(-c3cccc(-c4ccnc(Nc5ccc(C(=O)N6CCOCC6)cn5)c4)c3CO)ncc2c1 [Compound I-6, 6-tert-Butyl-8-fluoro-2-(2-hydroxymethyl-3-{2-[5-(morpholine-4-carbonyl)-pyridin-2-ylamino]-pyridin-4-yl}-phenyl)-2H-phthalazin-1-one] | 480
8 | CC(C)(C)c1cc(F)c2c(=O)n(-c3cccc(-c4cnnc(Nc5ccc(C(=O)N6CCOCC6)cn5)c4)c3CO)ncc2c1 [Compound I-5, 6-tert-Butyl-8-fluoro-2-(2-hydroxymethyl-3-{6-[5-(morpholine-4-carbonyl)-pyridin-2-ylamino]-pyridazin-4-yl}-phenyl)-2H-phthalazin-1-one] | 890
9 | CC(C)(C)c1cc(F)c2c(=O)n(-c3cccc(-c4cc(Nc5ccc(C(=O)N6CCOCC6)cn5)c5nccn5c4)c3CO)ncc2c1 [Compound I-10, 6-tert-Butyl-8-fluoro-2-(2-hydroxymethyl-3-{8-[5-(morpholine-4-carbonyl)-pyridin-2-ylamino]-imidazo[1,2-a]pyridin-6-yl}-phenyl)-2H-phthalazin-1-one] | 142

Now those with a lower IC50, led by results:

Row | IC50 [nM] | Structure (SMILES)
10 | 13 | CN1CCN(Cc2ccc(Nc3cc(-c4cccc(-n5ncc6cc(C(C)(C)C)cc(F)c6c5=O)c4CO)nn4ccnc34)nc2)CC1 [Compound I-4, 6-tert-Butyl-8-fluoro-2-(2-hydroxymethyl-3-{8-[5-(4-methyl-piperazin-1-ylmethyl)-pyridin-2-ylamino]-imidazo[1,2-b]pyridazin-6-yl}-phenyl)-2H-phthalazin-1-one]
11 | 72 | CN1CCC(c2ccc(Nc3cc(-c4cccc(-n5ncc6cc(C(C)(C)C)cc(F)c6c5=O)c4CO)cn4ccnc34)nc2)CC1 [Compound I-11, 6-tert-Butyl-8-fluoro-2-{2-hydroxymethyl-3-[8-(1′-methyl-1′,2′,3′,4′,5′,6′-hexahydro-[3,4′]bipyridinyl-6-ylamino)-imidazo[1,2-a]pyridin-6-yl]-phenyl}-2H-phthalazin-1-one]
12 | 77 | CC(C)(C)c1cc(F)c2c(=O)n(-c3cccc(-c4cc(Nc5ccc(C(=O)N6CCOCC6)cn5)c5nccn5n4)c3CO)ncc2c1 [Compound I-2, 6-tert-Butyl-8-fluoro-2-(2-hydroxymethyl-3-{8-[5-(morpholine-4-carbonyl)-pyridin-2-ylamino]-imidazo[1,2-b]pyridazin-6-yl}-phenyl)-2H-phthalazin-1-one]
13 | 40 | CC(C)N1CCN(c2ccc(Nc3cc(-c4cccc(-n5ncc6cc(C(C)(C)C)cc(F)c6c5=O)c4CO)nn4ccnc34)nc2)CC1 [Compound I-3, 6-tert-Butyl-8-fluoro-2-(2-hydroxymethyl-3-{8-[5-(4-isopropyl-piperazin-1-yl)-pyridin-2-ylamino]-imidazo[1,2-b]pyridazin-6-yl}-phenyl)-2H-phthalazin-1-one]
